Values quoted from earlier work, collected in US12201674B2 (EDIX SA, priority 2018, dated 2025).

What was measured:
[1] = molecular target: human somatostatin receptors (SSTR) 2 (Homo sapiens, UniProt P30874)
[2] = molecular target: SSTR 1 (Homo sapiens, UniProt P30872)
[3] = molecular target: SSTR 3 (Homo sapiens, UniProt P32745)
[4] = molecular target: SSTR 4 (Homo sapiens, UniProt P31391)
SSTR 4, sequence (P31391 whole entry): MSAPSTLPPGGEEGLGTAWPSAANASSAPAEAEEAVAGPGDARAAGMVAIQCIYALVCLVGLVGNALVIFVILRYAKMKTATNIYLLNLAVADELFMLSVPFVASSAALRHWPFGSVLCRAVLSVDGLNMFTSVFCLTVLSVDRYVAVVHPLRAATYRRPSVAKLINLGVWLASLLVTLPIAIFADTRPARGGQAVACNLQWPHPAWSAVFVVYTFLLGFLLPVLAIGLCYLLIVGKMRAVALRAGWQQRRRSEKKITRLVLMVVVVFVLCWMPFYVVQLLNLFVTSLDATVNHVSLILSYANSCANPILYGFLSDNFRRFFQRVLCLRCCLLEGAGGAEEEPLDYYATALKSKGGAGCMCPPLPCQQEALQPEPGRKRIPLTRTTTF

SSTR 3, sequence (P32745 whole entry): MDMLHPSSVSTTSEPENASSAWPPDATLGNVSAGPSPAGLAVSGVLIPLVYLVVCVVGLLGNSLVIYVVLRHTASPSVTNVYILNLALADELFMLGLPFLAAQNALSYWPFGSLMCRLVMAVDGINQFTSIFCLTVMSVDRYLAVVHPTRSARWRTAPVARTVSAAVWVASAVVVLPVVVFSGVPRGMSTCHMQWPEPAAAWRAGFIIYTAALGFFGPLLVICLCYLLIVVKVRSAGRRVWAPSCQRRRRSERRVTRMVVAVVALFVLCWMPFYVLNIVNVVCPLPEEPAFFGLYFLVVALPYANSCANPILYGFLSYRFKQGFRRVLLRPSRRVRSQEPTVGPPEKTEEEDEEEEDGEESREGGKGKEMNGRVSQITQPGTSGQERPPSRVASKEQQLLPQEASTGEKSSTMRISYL
human somatostatin receptors (SSTR) 2, sequence (P30874 whole entry): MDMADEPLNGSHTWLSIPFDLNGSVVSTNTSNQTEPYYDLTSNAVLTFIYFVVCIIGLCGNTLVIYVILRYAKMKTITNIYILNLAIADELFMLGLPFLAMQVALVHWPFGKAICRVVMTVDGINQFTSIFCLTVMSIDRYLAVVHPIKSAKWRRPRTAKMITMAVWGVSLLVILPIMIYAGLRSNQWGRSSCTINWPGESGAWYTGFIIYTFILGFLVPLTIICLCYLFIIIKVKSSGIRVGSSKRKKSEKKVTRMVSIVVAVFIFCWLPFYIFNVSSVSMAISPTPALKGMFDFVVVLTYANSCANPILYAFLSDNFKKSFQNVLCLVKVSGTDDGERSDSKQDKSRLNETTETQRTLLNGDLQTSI
SSTR 1, sequence (P30872 whole entry): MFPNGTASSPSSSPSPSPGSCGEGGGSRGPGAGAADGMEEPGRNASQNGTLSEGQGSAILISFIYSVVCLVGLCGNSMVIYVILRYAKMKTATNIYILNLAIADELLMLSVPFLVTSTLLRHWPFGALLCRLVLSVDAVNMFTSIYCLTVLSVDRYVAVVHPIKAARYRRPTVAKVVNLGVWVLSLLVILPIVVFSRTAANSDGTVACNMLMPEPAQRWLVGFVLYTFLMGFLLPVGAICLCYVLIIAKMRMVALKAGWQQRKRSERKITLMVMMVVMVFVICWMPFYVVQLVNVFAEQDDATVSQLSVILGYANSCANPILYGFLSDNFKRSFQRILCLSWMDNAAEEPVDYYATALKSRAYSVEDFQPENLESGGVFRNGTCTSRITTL

CC(C)[C@@H]1NC(=O)[C@H](CCCCN)NC(=O)[C@@H](Cc2c[nH]c3ccccc23)NC(=O)[C@H](Cc2ccc(O)cc2)NC(=O)[C@@H](NC(=O)[C@H](N)Cc2ccc3ccccc3c2)CSSC[C@@H](C(=O)N[C@H](C(N)=O)[C@@H](C)O)NC1=O [lanreotide]
affinity [1]: high affinity
affinity [2]: low affinity
affinity [3]: low affinity
affinity [4]: low affinity
